Drawing on ChEMBL document CHEMBL1145587, “Facile formation of hydrophilic derivatives of 5H-8,9-dimethoxy-5-[2-(N,N-dimethylamino)ethyl]-2,3-methylenedioxydibenzo[c,h] [1,6]naphthyridin-6-one (ARC-111) and its 12-aza analog via quaternary ammonium intermediates” (Bioorg Med Chem Lett, 2008), this text covers IC50 and Activity for eleven molecules.

pIC50: −log10 of the molar value.

Assay [1] in a line: Cytotoxicity against human […] cells. Format: functional, cell-based.
The target in assay [2] is T1, DNA topoisomerase 1 (Homo sapiens) (UniProt P11387).
T1 sequence (whole entry): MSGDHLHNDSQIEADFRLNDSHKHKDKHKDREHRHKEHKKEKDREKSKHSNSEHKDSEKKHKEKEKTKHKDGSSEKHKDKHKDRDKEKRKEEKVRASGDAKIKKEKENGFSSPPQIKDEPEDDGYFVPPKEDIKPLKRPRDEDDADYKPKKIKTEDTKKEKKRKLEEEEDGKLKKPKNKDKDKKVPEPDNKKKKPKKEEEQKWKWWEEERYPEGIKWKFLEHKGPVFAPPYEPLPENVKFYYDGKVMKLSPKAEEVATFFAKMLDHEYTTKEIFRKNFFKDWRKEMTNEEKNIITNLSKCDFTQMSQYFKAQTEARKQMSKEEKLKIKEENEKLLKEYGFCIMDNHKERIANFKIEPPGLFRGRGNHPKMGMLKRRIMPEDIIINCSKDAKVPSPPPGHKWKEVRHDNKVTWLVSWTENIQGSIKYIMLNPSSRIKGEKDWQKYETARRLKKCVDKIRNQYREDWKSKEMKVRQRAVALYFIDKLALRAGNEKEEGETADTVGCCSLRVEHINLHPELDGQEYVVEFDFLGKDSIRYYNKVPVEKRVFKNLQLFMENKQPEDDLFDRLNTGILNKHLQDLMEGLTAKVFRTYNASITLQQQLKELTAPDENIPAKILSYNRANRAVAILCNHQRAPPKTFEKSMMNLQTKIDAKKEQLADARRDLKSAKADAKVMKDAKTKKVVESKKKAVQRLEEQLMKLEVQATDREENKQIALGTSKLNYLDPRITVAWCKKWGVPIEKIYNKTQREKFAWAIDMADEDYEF
Kind of assay: Effect on human topoisomerase 1-mediated plasmid DNA cleavage relative to topotecan.

Assay [3] can be described thus: Cytotoxicity against […] cells. It is filed as functional, cell-based. Conditions: Mus musculus, P388CPT45.
Assay [4] in a line: Cytotoxicity against human camptothecin-resistant CPT-K5 cells. It is filed as functional, cell-based.
Assay [5] relates to P388. Description: Cytotoxicity against […] cells. Format: functional, cell-based. Conditions: Mus musculus.

Take `COc1cc2c(=O)n(CCO)c3c4cc5c(cc4nnc3c2cc1OC)OCO5`: the pIC50 (commonly the negative decadic logarithm of the IC50, by convention in mol/L) in assay [1] is 7.89; in assay [3], 6.15; in assay [4] it was 5.89; in assay [5], 7.92. In assay [2], this molecule came in with an Activity of 0.3.
As to `COc1cc2c(=O)n(CCO)c3c4cc5c(cc4ncc3c2cc1OC)OCO5`, the negative-log IC50 (pIC50) in assay [1] is 7.52; in assay [3], 6.05; in assay [4], less than 5.00; in assay [5], 7.52. For the same molecule, the Activity in assay [2] turned out to be 4.7.
For the molecule `COc1cc2c(=O)n(CCNC(CO)(CO)CO)c3c4cc5c(cc4nnc3c2cc1OC)OCO5`, the negative-log IC50 (pIC50) in assay [1] was 7.19; in assay [3], 5.52; in assay [4] it was 5.24; in assay [5], 7.40. The Activity in assay [2] was found to be 0.2.
`COc1cc2c(=O)n(CCN(C)C)c3c4cc5c(cc4ncc3c2cc1OC)OCO5`: the pIC50 in assay [1] is 8.70; in assay [3], 6.64; in assay [4], 6.05; in assay [5] it was 9.00. In assay [2], this molecule registered an Activity of 0.3.
Turning to `COc1cc2c(=O)n(CCNC(CO)(CO)CO)c3c4cc5c(cc4ncc3c2cc1OC)OCO5`, the pIC50 in assay [1] was 6.48; in assay [3] it was 5.46; in assay [4], 5.15; in assay [5], 6.48. The Activity in assay [2] worked out at 2.
Regarding `COc1cc2c(=O)n(CCn3ccnc3)c3c4cc5c(cc4ncc3c2cc1OC)OCO5`, the negative logarithm of the IC50 (pIC50) in assay [1] is 6.68; in assay [3], less than 5.00; in assay [4], less than 5.00; in assay [5] it was 6.70. The molecule further returned an Activity in assay [2] of 2.3.
As to `COc1cc2c(=O)n(CCn3ccnc3)c3c4cc5c(cc4nnc3c2cc1OC)OCO5`, the negative-log IC50 (pIC50) is 6.40 in assay [1], less than 5.00 in assay [3], less than 5.00 in assay [4] and 6.72 in assay [5]. Further, the Activity in assay [2] came to 0.1.
In the case of `COc1cc2c(=O)n(CCN(C)CCN(C)C)c3c4cc5c(cc4ncc3c2cc1OC)OCO5`, the pIC50 in assay [1] is 7.35; in assay [3], 7.15; in assay [4], 5.66; in assay [5] it was 7.46. For the same molecule, in assay [2], the Activity was 0.7.
For `COc1cc2c(=O)n(CCN(C)CCN(C)C)c3c4cc5c(cc4nnc3c2cc1OC)OCO5`, the pIC50 is 7.48 in assay [1], 6.52 in assay [3], 5.66 in assay [4] and 7.72 in assay [5]. In assay [2], this molecule came in with an Activity of 0.4.
Regarding `CC[C@@]1(O)C(=O)OCc2c1cc1n(c2=O)Cc2cc3ccccc3nc2-1` [CAMPTOTHECIN], the pIC50 in assay [1] is 8.40; in assay [3] it was less than 5.00; in assay [4] it was less than 5.00; in assay [5], 8.40. In assay [2], this molecule yielded an Activity of 0.2.
Turning to `COc1cc2c(=O)n(CCN(C)C)c3c4cc5c(cc4nnc3c2cc1OC)OCO5`, the negative-log IC50 (pIC50) in assay [1] was 8.70; in assay [3] it was 6.64; in assay [4], 6.13; in assay [5], 8.70. Also, the Activity in assay [2] stood at 0.3.
